Measurements taken from patent publication US20100323442A1, “MODULATION OF THE PHOSPHATIDYLINOSITOL-3-KINASE PATHWAY IN THE DIFFERENTIATION OF HUMAN EMBRYONIC STEM CELLS” (priority 2006, published 2010).
Entries after “also recorded” stand apart in the source; their conditions may differ.

Legend:
[1] = test system: Human ESCs (CyT203); assay: Differentiation of hESCs in growth factor conditions, marker gene expression by QPCR; type: cell-based; conditions: for expression of brachyury: RPMI, 0% FBS day 1, 0.2% day 2, 2% days 3-5, activin A 100 ng/ml at 36 and 48 hours; for differentiation of hESCs to initial cell fate, as indicated by marker expression: cultures lacking insulin, follistatin 100 ng/ml, noggin 200 ng/ml, BMP4 100 ng/ml, 5 days
Protocol: Human ESCs (CyT203) were grown in growth media on a mouse fibroblast feeder layer. On the day differentiation began, cultures were washed once with phosphate buffered saline (PBS) and then placed into differentiation media. Differentiation media consisted of RPMI with penicillin/streptomycin and Glutamax containing 0% FBS on the first day, 0.2% v/v FBS on the second day and 2% v/v FBS on days 3-5. Growth factors were used at the following concentrations: activin A at 100 ng/ml, follistatin at 100 ng/ml, noggin at 200 ng/ml, BMP4 at 100 ng/ml, and SU5402 at 5 μM. Individual cultures received the same growth factor cocktail with or without the addition of 10 μg/ml human recombinant insulin for all 5 days of differentiation as indicated. Samples were taken at daily intervals for analysis of gene expression using QPCR to monitor the differentiation of the populations in response to the different growth factor treatments. At the conclusion of the treatment phase the cells were fixed in 4% paraformaldehyde for 15 min at room temperature and reacted with antibodies to SOX17 or PAX6. Human embryonic stem cells (CyT203) were grown in growth media on a mouse fibroblast feeder layer. On the day differentiation began, cultures were washed once with phosphate buffered saline (PBS) and then placed into differentiation media. Differentiation media consisted of RPMI with penicillin/streptomycin and Glutamax containing 0% FBS on the first day, 0.2% v/v FBS on the second day and 2% v/v FBS on days 3-5. Cultures were treated with SU5402 at 5 μM with or without the addition of human recombinant insulin at 10 μg/ml. Individual cultures received the same growth factor cocktail for all 5 days of differentiation as indicated. Samples were taken at daily intervals for analysis of gene expression using QPCR to monitor the differentiation of the populations in response to the different growth factor treatments. At the conclusion of the treatment phase the cells were fixed in 4% paraformaldehyde for 15 min at room temperature and reacted with antibodies to SOX17, OCT4 or PAX6.

[2] = test system: Human ESCs (CyT203); assay: Immunofluorescence of treated hESCs with antibodies to SOX17, OCT4 or PAX6; type: cell-based
Protocol: Human ESCs (CyT203) were grown in growth media on a mouse fibroblast feeder layer. On the day differentiation began, cultures were washed once with phosphate buffered saline (PBS) and then placed into differentiation media. Differentiation media consisted of RPMI with penicillin/streptomycin and Glutamax containing 0% FBS on the first day, 0.2% v/v FBS on the second day and 2% v/v FBS on days 3-5. Growth factors were used at the following concentrations: activin A at 100 ng/ml, follistatin at 100 ng/ml, noggin at 200 ng/ml, BMP4 at 100 ng/ml, and SU5402 at 5 μM. Individual cultures received the same growth factor cocktail with or without the addition of 10 μg/ml human recombinant insulin for all 5 days of differentiation as indicated. Samples were taken at daily intervals for analysis of gene expression using QPCR to monitor the differentiation of the populations in response to the different growth factor treatments. At the conclusion of the treatment phase the cells were fixed in 4% paraformaldehyde for 15 min at room temperature and reacted with antibodies to SOX17 or PAX6.
Human embryonic stem cells (CyT203) were grown in growth media on a mouse fibroblast feeder layer. On the day differentiation began, cultures were washed once with phosphate buffered saline (PBS) and then placed into differentiation media. Differentiation media consisted of RPMI with penicillin/streptomycin and Glutamax containing 0% FBS on the first day, 0.2% v/v FBS on the second day and 2% v/v FBS on days 3-5. Cultures were treated with SU5402 at 5 μM with or without the addition of human recombinant insulin at 10 μg/ml. Individual cultures received the same growth factor cocktail for all 5 days of differentiation as indicated. Samples were taken at daily intervals for analysis of gene expression using QPCR to monitor the differentiation of the populations in response to the different growth factor treatments. At the conclusion of the treatment phase the cells were fixed in 4% paraformaldehyde for 15 min at room temperature and reacted with antibodies to SOX17, OCT4 or PAX6.

[3] = QPCR, activin A 100 ng/ml, SU5402 5 μM
[4] = QPCR, insulin 10 μg/ml added to growth factor treatment
[5] = QPCR, no insulin, continued presence of activin A 100 ng/ml

Cc1c[nH]c(/C=C2\C(=O)Nc3ccccc32)c1CCC(=O)O [SU5402, reference compound]
expression of brachyury ([1]; QPCR, no insulin, SU5402 5 μM): elevated expression | differentiation of hESCs to initial cell fate, as indicated by marker expression [1, 3]: make all available fate choices; also recorded: made all available fate choices | expression of CDX2 ([1]; QPCR, no insulin, SU5402 5 μM): elevated expression | expression of SOX1 ([1]; QPCR, no insulin, SU5402 5 μM): elevated expression | expression of SOX7 ([1]; QPCR, no insulin, SU5402 5 μM): elevated expression

insulin: human recombinant insulin, 10 μg/ml, signals through the PI-3-kinase pathway
production of cells of each of the primary lineages ([1]; 10 μg/ml human recombinant insulin added to the growth factor cocktail, all 5 days): significantly reduced | expression of CDX2 in the presence of insulin [1, 4]: decreased expression | expression of PAX6 in the presence of insulin [1, 4]: decreased expression | expression of SOX1 in the presence of insulin [1, 4]: decreased expression | expression of SOX7 in the presence of insulin [1, 4]: decreased expression | expression of WNT3A in the presence of insulin [1, 4]: decreased expression | expression of brachyury in the presence of insulin [1, 4]: decreased expression | generalized differentiation under SU5402 ([1]; SU5402 5 μM plus insulin 10 μg/ml, brachyury, SOX1, SOX7, CDX2): inhibited strongly | efficiency with which the hESCs differentiate to each of the 4 primary lineages ([1]; high levels of insulin (10 μg/ml) in the media): decrease | OCT4-positive cell numbers ([2]; high levels of insulin present): maintenance | number of SOX17-positive cells in response to activin A treatment ([2]; high levels of insulin present): decrease | number of PAX6-positive cells in response to noggin/follistatin treatment ([2]; insulin in the media): reduced

B1: activin A: growth factor used at 100 ng/ml as differentiation factor (protein, UniProt P08476 311-426, looked up)
Inhibin beta A chain: GLECDGKVNICCKKQFFVSFKDIGWNDWIIAPSGYHANYCEGECPSHIAGTSGSSLSFHSTVINHYRMRGHSPFANLKSCCVPTKLRPMSMLYYDDGQNIIKKDIQNMIVEECGCS
modifications: Inhibin beta A chain
notes: growth factor used at 100 ng/ml as differentiation factor
expression of brachyury ([1]; QPCR, no insulin, SU5402 5 μM): elevated expression | differentiation of hESCs to initial cell fate, as indicated by marker expression [1, 3]: induced initial fate commitment to mesendoderm | PAX6 mRNA ([1]; QPCR, no insulin, activin A 100 ng/ml): induction | expression of WNT3A ([1]; QPCR, no insulin, activin A 100 ng/ml, at 36 and 48 hours): elevated expression | expression of GSC [1, 5]: elevated expression | expression of SOX17 [1, 5]: elevated expression | further differentiation of the mesendoderm ([1]; continued presence of activin A 100 ng/ml, indicated by SOX17 and GSC): further differentiated to definitive endoderm
